Laboratory results reported in PMC7956625, “Optimization and Anti-Cancer Properties of Fluoromethylketones as Covalent Inhibitors for Ubiquitin C-Terminal Hydrolase L1” (Molecules, 2021).
Where a chain is given by its changes, count along the chain named. Entries after “also recorded” stand apart in the source; their conditions may differ. Where a SMILES comes first, the peptide text is derived from it. The star is where a group is joined. Cbz = O=C(OCc1ccccc1)*; CH2F = FC*

What was measured:
UCHL3 = biological target: T1, UCHL3 (Homo sapiens, UniProt P15374); set-up: His (N); made in house; method as in PMID 22617491; settings: concentrations up to 400 µM; cited from earlier work
T1 sequence (P15374 1-230): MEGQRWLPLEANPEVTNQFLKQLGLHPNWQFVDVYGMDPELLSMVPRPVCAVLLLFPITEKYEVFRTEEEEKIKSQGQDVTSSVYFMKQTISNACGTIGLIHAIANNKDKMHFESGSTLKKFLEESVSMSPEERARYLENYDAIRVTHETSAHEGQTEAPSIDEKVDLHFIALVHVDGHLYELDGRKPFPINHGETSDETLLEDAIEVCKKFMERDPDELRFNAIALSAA

KMS11 cells = assay: KMS cell proliferation assay (IncuCyte); assay type: cell-based; settings: 100 µM; 24, 48, 72 and 96 h
Method: (§1) The proliferation of KMS11 and KMS12 cells was monitored using an IncuCyte devise (Sartorius, Goettingen, Germany; www.essenbioscience.com, accessed on 31 August 2020). Cells (3 × 10^4 per well; 200 µL) were seeded in triplicate in 96 well plates the night prior to the addition of compounds. The IncuCyte was set to collect images from five fields per well at 4-h intervals by using the nuclear dye Nuclight Red (Sartorius). At each timepoint, the number of cells per well was deter- mined by taking the mean of the five locations in each well. The relative proliferation at each timepoint was normalized, with 100% set as the number of cells observed for incubated with DMSO (0.1%) controls at 72 h.

KMS12 cells = assay: KMS cell proliferation assay (IncuCyte); assay type: cell-based; settings: 100 µM; 24 to 96 h; cells do not express UCHL1
Method: as §1

His-UCHL1 = biological target: T2, His-UCHL1 (Homo sapiens, UniProt P09936); assay: Ub binding affinity analysis using biolayer interferometry; settings: His-UCHL1 preincubated with 1 (2 mM) overnight at room temperature
T2 construct: made in house
T2 sequence (P09936 1-223): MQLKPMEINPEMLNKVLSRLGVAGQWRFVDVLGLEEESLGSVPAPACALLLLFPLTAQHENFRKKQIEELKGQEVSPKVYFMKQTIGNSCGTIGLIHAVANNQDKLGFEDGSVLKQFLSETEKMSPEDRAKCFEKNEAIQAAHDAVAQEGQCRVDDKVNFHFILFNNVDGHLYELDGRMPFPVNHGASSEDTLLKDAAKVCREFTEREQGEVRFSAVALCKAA
Method: The concentration of His-UCHL1 was determined by A280 on a NanoDrop system (Thermo Scientific), after which His-UCHL1 was diluted into BLI buffer [1× PBS containing 0.05% (v/v) Tween 20 and 0.1% (w/v) bovine serum albumin (BSA)]. […] The Ni-NTA biosensor was dipped first into BLI buffer (initial baseline, 60 s), then into the His-UCH protein wells (loading step, 300 s), then into BLI buffer alone (baseline step, 60 s), then into the lowest concentration of UbV (association step, 120 s), and then into buffer alone (dissociation step, 100 s). A reference sensor loaded with protein was dipped into wells containing only buffer to adjust for protein-buffer signals. The association-dissociation was repeated with increasing concentrations of UbV. All measurements were taken at 30 °C.
Octet RED384 Data Analysis Software (ForteBio, version 9.0.0.15) was used to collect and analyze the raw data for the association and dissociation curves.

UCHL5 = biological target: T3, UCHL5 (Homo sapiens, UniProt Q9Y5K5); assay: KMS cell activity-based probe (HA-Ub-VME) assay, HA blot higher exposure; settings: 250 µM, KMS11 cells
T3 sequence (Q9Y5K5 1-245 limits assumed): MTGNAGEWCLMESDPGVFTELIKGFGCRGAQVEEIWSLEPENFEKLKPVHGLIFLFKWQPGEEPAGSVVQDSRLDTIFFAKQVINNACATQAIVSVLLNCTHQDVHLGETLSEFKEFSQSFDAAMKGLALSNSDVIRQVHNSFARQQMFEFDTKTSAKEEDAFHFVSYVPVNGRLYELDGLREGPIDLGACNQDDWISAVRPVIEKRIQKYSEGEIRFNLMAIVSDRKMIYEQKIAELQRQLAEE
Method: To confirm on-target engagement in KMS11 cells, a Ub activity-based probe (ABP) gel-shift assay was employed. Using the hemagglutinin-tagged Ub-vinylmethylester (HA-Ub-VME) ABP to examine the activity of 1 in KMS11 cells, an immunoblot was performed. Cells were treated in dose-response with 1 (0–250 µM), washed with PBS, then lysed and treated with HA-Ub-VME. The HA-Ub-VME labels any remaining DUBs that have not been inhibited by 1.
Twelve hours prior to the addition of compounds to the cells, 1.2 million KMS11 or KMS12 cells mL^−1 per well were seeded in a 12 well plate. Cells were incubated with inhibitor for 4 h before washing the cells three time with PBS to remove excess compound. Cells were harvested, pelleted, and lysed in 60 µL of lysis buffer (0.5%NP-40 in 50 mM Tris pH 7.4). HA-Ub-VME was then added to a final concentration of 1 µM and incubated for 1 h at room temperature. An equal volume of 2X Laemmli sample buffer was added, and the samples were heated to 95 °C before separating by gel electrophoresis and analyzed by immunoblot.

UCHL1 C90A = biological target: T4, UCHL1 C90A (Homo sapiens, UniProt P09936, C90A); assay: Click reaction and in-gel fluorescence, recombinant protein; assay type: binding; settings: 10 µM inhibitor, 3 h, Cy5-Azide click
T4 construct: His (N); made in house
T4 sequence (P09936 1-223 C90A): T2 sequence (P09936 1-223) with C90A
Method: (§2) A common shortcoming to covalent inhibitors is that the reactive electrophilic groups may partake in non-specific labeling of off-target cysteines. To investigate if alternative cysteines are affected on UCHL1 we used analog 34 to confirm that the fluoromethylketone derivatives only conjugate Cys90. […] Additionally, samples were analyzed by mass spectrometry to increase sensitivity for detection of any non-Cys90 adducts. […]
(§3) Solutions containing 1 mg/mL recombinant UCHL1^WT or UCHL1^C90A (from pET15b) (49 µL) was incubated with 10 µM inhibitor for 3 h at room temperature in PBS starting block buffer (Thermo Scientific # 37538). After 3 h, 6 µL of a freshly prepared cocktail was added to each sample, consisting of: 3 µL 1.7 mM THPTA in 1:4 DMSO/tBuOH (100 µM final concentration), 1 µL 50 mM CuSO4 (1 mM final concentration), 1 µL TCEP HCl (25 µM final concentration), and 1 uL Cy5-Azide (#AZ118, Click Chemistry Tools, Scottsdale, AZ, USA; 25 µM final concentration). The samples were allowed to react for 2 h at room temperature protected from light before precipitating the sample by adding 600 µL MeOH, 150 µL chloroform, and 400 µL water, vortexing between each addition. The samples were pelleted by centrifuging at […] for 5 min. […] The samples were then analyzed by SDS-PAGE and imaged on an Odyssey system (LI-COR, Lincoln, NE, USA) and subsequently Coomassie stained.

UCHL1^WT = biological target: T5, UCHL1^WT (Homo sapiens, UniProt P09936); assay: as above; assay type: binding; settings: 10 µM inhibitor, 3 h, Cy5-Azide click
T5 construct: His (N); made in house
T5 sequence (P09936 1-223): T2 sequence (P09936 1-223)
Method: as §2, §3

Row | Structure (SMILES) | activity toward UCHL3 (UCHL3) | proliferation of KMS11 cells compared to DMSO (KMS11 cells) | proliferation of KMS12 cells compared to DMSO (KMS12 cells) | effect of conjugated 1 on UCHL1:Ub interaction (His-UCHL1) | inhibition of DUB corresponding to the molecular weight UCHL5 (UCHL5) | covalent adduct with UCHL1 C90A (in-gel fluorescence) (UCHL1 C90A) | covalent adduct with WT-UCHL1 (in-gel fluorescence) (UCHL1^WT)
1 | COC(=O)CC[C@H](NC(=O)[C@H](C)NC(=O)[C@@H](NC(=O)OCc1ccccc1)C(C)C)C(=O)CF [Cpd 1, benzyloxycarbonyl-Val-Ala-Glu(γ-methoxy)-fluoromethylketone] (Cbz-Val-Ala-Glu(OMe)-CH2F) | not possess any activity | reduced proliferation; also recorded: anti-proliferative properties | showed reduced growth at the 24-h timepoint but regained proliferative ability at the 96-h timepoint | completely abrogated the ability of UCHL1 to interact with Ub | may also be inhibited | – | –
2 | C#Cc1ccc(COC(=O)N[C@H](C(=O)N[C@@H](C)C(=O)N[C@@H](CCC(=O)OC)C(=O)CF)C(C)C)cc1 [Cpd 34] | – | – | – | – | – | does not form an adduct; also recorded: no fluorescent bands were observed | forms a covalent adduct with WT-UCHL1; also recorded: formed a covalent adduct
